Test systems include 786-0; ACHN; CAKI-1; EKVX; HCC 2998; HCT-15; HOP-62; HOP-92; HT-29; IGROV-1; KM12; NCI-H23; OVCAR-4; SK-MEL-5; SK-OV-3; SNB-75; TK-10; MCF7; MDA-MB-435.
What all share (test): NCI-60 cell line screen, 48 h

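Protocol summary: plate cells (96-well), add compound at 5 concentrations, incubate 48 h, interpolate endpoints linearly. The concentration for 50% growth inhibition is given as GI50.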 Calls of active or inactive are those of the source. No stated cut-off is given here; in the data, active = GI50 up to about 1.1 µM and inactive = higher.

Turning to `O=c1/c(=C/c2ccco2)sc2nc3ccccc3n12`, the GI50 with 786-0 was > 10 µM (inactive); with ACHN, > 10 µM (inactive); in the assay with CAKI-1, > 10 µM (inactive); with EKVX, 59.2 µM (inactive); in the assay on HCC 2998, > 10 µM (inactive); in the assay with HCT-15, greater than 10 µM. The GI50 with HOP-62 was > 100 µM (inactive); with HOP-92 it was > 10 µM (inactive); in the assay with HT-29, > 10 µM (inactive); in the assay with IGROV-1, > 10 µM (inactive); in the assay on KM12, > 100 µM (inactive); in the assay on NCI-H23 it was > 10 µM (inactive). Also, the GI50 in the assay with OVCAR-4 was > 10 µM (inactive); in the assay with SK-MEL-5, > 10 µM (inactive); with SK-OV-3, > 100 µM (inactive); in the assay on SNB-75, 27 µM (inactive); with TK-10, 50 µM (inactive).

Take `COc1ccc(S(=O)(=O)N/N=C(\C)CN2C(=O)c3ccccc3C2=O)cc1OC`: the GI50 in the assay with 786-0 was > 100 µM (inactive); with ACHN, > 100 µM (inactive); in the assay with CAKI-1, > 100 µM (inactive); in the assay with EKVX, > 100 µM (inactive); in the assay on HCC 2998, > 100 µM (inactive); in the assay on HCT-15 it was greater than 100 µM. For the same compound, the GI50 in the assay on HOP-62, in the assay on HOP-92, in the assay with HT-29, in the assay on IGROV-1, in the assay with KM12 and in the assay on NCI-H23 was > 100 µM (inactive) each time. Besides, the GI50 in the assay on OVCAR-4, in the assay on SK-MEL-5, in the assay on SK-OV-3, in the assay with SNB-75 and in the assay on TK-10 was > 100 µM (inactive) throughout.

In the case of `c1ccc([S+](c2ccccc2)c2ccc(Sc3ccc([S+](c4ccccc4)c4ccccc4)cc3)cc2)cc1`, the GI50 in the assay on 786-0 was 43.8 µM (inactive); in the assay with ACHN it was 26.4 µM (inactive); in the assay on CAKI-1, 75.5 µM (inactive); with EKVX, 73.6 µM (inactive); with HCC 2998, 20.2 µM (inactive); in the assay with HCT-15, greater than 100 µM. Besides, the GI50 is 39.7 µM (inactive) in the assay on HOP-62; 27.6 µM (inactive) with HOP-92; 18.2 µM (inactive) in the assay on HT-29; 43.2 µM (inactive) with IGROV-1; 21.3 µM (inactive) with KM12; 3.06 µM (inactive) with NCI-H23. The GI50 in the assay with OVCAR-4 was 20.6 µM (inactive); in the assay on SK-MEL-5, 5.81 µM (inactive); with SK-OV-3, 21.9 µM (inactive); with SNB-75, 19.2 µM (inactive); in the assay with TK-10 it was 36.2 µM (inactive).

`Cc1ccc(S(=O)(=O)N/N=C(\c2nc3ccc([N+](=O)[O-])cc3nc2O)C(O)c2ccccc2Cl)cc1` (stereo not given): the GI50 in the assay on 786-0 is > 100 µM (inactive); with ACHN, > 100 µM (inactive); with CAKI-1, > 100 µM (inactive); with EKVX, > 100 µM (inactive); with HCC 2998, > 100 µM (inactive); in the assay with HCT-15 it was 78 µM. Further, the GI50 with HOP-62 is > 100 µM (inactive); in the assay on HOP-92, > 100 µM (inactive); in the assay with HT-29, > 100 µM (inactive); with IGROV-1, > 100 µM (inactive); in the assay with KM12, 93.8 µM (inactive); with NCI-H23, > 100 µM (inactive). Besides, the GI50 in the assay with OVCAR-4 was > 100 µM (inactive); in the assay on SK-MEL-5, 55.3 µM (inactive); in the assay with SK-OV-3 it was > 100 µM (inactive); in the assay with SNB-75, > 100 µM (inactive); with TK-10, > 100 µM (inactive).

On to `CCC1(OC(C)=O)C(=O)OCc2c1cc1n(c2=O)Cc2cc3ccccc3nc2-1` (stereo not given), for which the GI50 is 0.564 µM (active) in the assay with 786-0; 0.455 µM (active) in the assay with ACHN; 1.07 µM (active) in the assay with CAKI-1; 12.8 µM (inactive) with EKVX; 4.42 µM (inactive) in the assay with HCC 2998; 12.3 µM in the assay on HCT-15. Also, the GI50 was 0.316 µM (active) with HOP-62; 24.8 µM (inactive) with HOP-92; 3.63 µM (inactive) with HT-29; 7.52 µM (inactive) in the assay with IGROV-1; 7.6 µM (inactive) with KM12; 0.966 µM (active) in the assay on NCI-H23. Further, the GI50 in the assay on OVCAR-4 is 41.4 µM (inactive); in the assay on SK-MEL-5, 1.23 µM (inactive); with SK-OV-3 it was 2.28 µM (inactive); in the assay with SNB-75 it was 1.48 µM (inactive); in the assay on TK-10 it was > 100 µM (inactive).

Consider `C=C1CC2C(=O)N(c3ccccc3)C(=O)C2CC1n1[nH]c(=O)n(Cc2ccccc2)c1=O` (stereo not given), for which the GI50 is > 100 µM (inactive) in the assay on 786-0; > 100 µM (inactive) with ACHN; > 100 µM (inactive) in the assay on CAKI-1; > 100 µM (inactive) in the assay on EKVX; > 100 µM (inactive) in the assay with HCC 2998; greater than 100 µM in the assay with HCT-15. Moreover, the GI50 with HOP-62, with HOP-92, in the assay on HT-29, in the assay with IGROV-1, with KM12 and in the assay on NCI-H23 was > 100 µM (inactive) each time. The GI50 in the assay with OVCAR-4, in the assay with SK-MEL-5, in the assay on SK-OV-3, in the assay on SNB-75 and in the assay with TK-10 was > 100 µM (inactive) each time.

For the compound `Cc1cc(-c2nc3ccccc3s2)ccc1NS(=O)(=O)O`, the GI50 in the assay with 786-0 is > 8.85 µM (inactive); with ACHN, > 7.78 µM (inactive); with CAKI-1 it was > 7.21 µM (inactive); in the assay on HCT-15, greater than 4.65 µM; in the assay on HT-29 it was > 4.65 µM (inactive); with IGROV-1 it was 1.11 µM (active). The GI50 with KM12 is > 4.65 µM (inactive); in the assay on MCF7 it was < 0.0382 µM (active); in the assay on MDA-MB-435, > 7.08 µM (inactive); in the assay on NCI-H23, > 7.11 µM (inactive); with SK-MEL-5, > 100 µM (inactive); in the assay on SK-OV-3 it was > 33.5 µM (inactive). The figures for the GI50 in the assay with SNB-75 and in the assay with TK-10 were > 67 µM (inactive) and > 26.1 µM (inactive), respectively.

For the compound `CC1(C)OC(C[C@]2(C#N)C[C@H](CCl)OC(C)(C)O2)C[C@@H](C[C@]2(C#N)C[C@H](CCl)OC(C)(C)O2)O1` (stereo not given in full), the GI50 in the assay on 786-0 is > 100 µM (inactive); in the assay on ACHN, > 100 µM (inactive); in the assay with CAKI-1, > 100 µM (inactive); with EKVX it was > 100 µM (inactive); with HCC 2998, > 100 µM (inactive); in the assay on HCT-15, greater than 100 µM. Besides, the GI50 in the assay with HOP-62, in the assay on HOP-92, in the assay on HT-29, with IGROV-1, with KM12 and in the assay with NCI-H23 was > 100 µM (inactive) in each case. Also, the GI50 with OVCAR-4 is > 100 µM (inactive); in the assay with SK-MEL-5, 51.6 µM (inactive); in the assay with SK-OV-3, > 100 µM (inactive); with SNB-75 it was > 100 µM (inactive); with TK-10, > 100 µM (inactive).

On to `CC(=O)NC(CCCNC(=O)OCc1ccccc1)C(=O)NCc1ccccc1` (stereo not given), for which the GI50 in the assay with 786-0 was > 100 µM (inactive); with ACHN it was > 100 µM (inactive); with CAKI-1, > 100 µM (inactive); in the assay with EKVX, > 100 µM (inactive); in the assay on HCC 2998, > 100 µM (inactive); in the assay with HCT-15 it was greater than 100 µM. In addition, the GI50 in the assay with HOP-62, in the assay on HOP-92, with HT-29, in the assay on IGROV-1, in the assay on KM12 and in the assay with NCI-H23 was > 100 µM (inactive) throughout. For the same compound, the GI50 is > 100 µM (inactive) with OVCAR-4; > 100 µM (inactive) in the assay with SK-MEL-5; > 100 µM (inactive) with SK-OV-3; 41.8 µM (inactive) with SNB-75; > 100 µM (inactive) in the assay with TK-10.

Values taken from ChEMBL document CHEMBL1201862, “PubChem BioAssay data set” (2004).
